Test results as given in US20240299373A1, “IMPROVED USE OF TRADIPITANT IN MOTION SICKNESS” (Vanda Pharmaceuticals Inc., priority 2023, published 2024).

How the values were obtained:
[1] = tested on: panel of 74 other receptors, enzymes, and ion channels; test: Selectivity panel binding; settings: test concentration of 1 μM
Text: Tradipitant is a selective neurokinin-1 (NK-1) receptor antagonist. […] By 3 different measures, tradipitant is also a potent centrally active NK-1 antagonist in vivo.

[2] = target: T1, NK-1 receptor (Cavia porcellus, UniProt P30547); test: GR73632-induced vocalization in guinea pigs; assay type: in vivo; settings: guinea pig
T1 construct: potency and CNS penetration of NK-1 antagonists in the guinea pig; from tissue; host or cells: brain of living Dunkin/Hartley guinea pigs
T1 sequence (P30547 whole entry): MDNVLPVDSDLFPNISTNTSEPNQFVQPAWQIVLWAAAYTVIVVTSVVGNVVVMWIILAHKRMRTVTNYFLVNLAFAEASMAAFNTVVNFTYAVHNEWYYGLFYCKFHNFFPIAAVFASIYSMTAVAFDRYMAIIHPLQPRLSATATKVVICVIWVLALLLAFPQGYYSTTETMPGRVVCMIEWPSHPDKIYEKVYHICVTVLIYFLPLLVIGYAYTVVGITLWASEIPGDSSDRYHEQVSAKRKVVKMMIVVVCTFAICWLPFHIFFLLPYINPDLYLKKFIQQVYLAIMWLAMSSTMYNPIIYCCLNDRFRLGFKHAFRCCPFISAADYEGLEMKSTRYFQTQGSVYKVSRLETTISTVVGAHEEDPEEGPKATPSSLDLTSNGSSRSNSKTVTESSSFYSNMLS
Method: When introduced into the brain, the NK-1 receptor agonist substance P (SP) elicits distress vocalizations in the guinea pig that can be inhibited by NK-1 antagonists.
Male Dunkin/Hartley guinea pigs (200 to 250 grams) are orally administered either vehicle or an NK-1 antagonist. Approximately 45 minutes later (for dose response studies), the animals are anesthetized and 0.1 nmol of GR73632 (SP analog) in a vehicle volume of 5 μl is injected into the cerebral ventricle at the intersection of bregma and the midline of the skull. Animals are placed in a dark testing chamber located inside of a sound attenuation cubicle and vocalizations are recorded for 30 minutes following recovery from anesthesia. The time spent vocalizing is quantified for each animal. In the duration of action study, 0.1 mg/kg of tradipitant or vehicle solution is administered orally and then 2, 4, or 7 hours later, 0.1 nmol of GR73632 is administered into the cerebral ventricle as described above. Vocalizations are recorded and quantified as indicated above. Vehicle solutions are either CMC (FIG. 4 data) or an ethanol/emulphor solution (FIGS. 5 and 6). Data is analyzed using one-tailed t-tests.

[3] = tested on: brain NK-1 receptors; test: Occupancy of brain NK-1 receptors with tracer GR205171; assay type: in vivo; settings: p.o., tracer GR205171 iv
Method: A tracer NK-1 antagonist compound (GR205171) is used to evaluate the ability of other NK-1 antagonists to occupy the brain NK-1 receptors. In these studies, the test compounds are administered orally and the tracer compound is administered intravenously afterward. The occupancy of the NK-1 receptors is evaluated by quantitating the amount of the tracer compound bound to the brain NK-1 receptors after increasing doses of the test compounds.

[4] = tested on: motion sickness; test: Clinical study of motion sickness prevention during sea travel; assay type: in vivo, human; settings: for study participants experiencing vomiting: tradipitant arm 170 mg
Method: A randomized, double blind, placebo-controlled clinical study of motion sickness is conducted, in which 126 human subjects (“study participants”), each having a prior history of motion sickness, are subjected to sea travel in the Pacific Ocean under varied weather conditions. Study participants are distributed over seven (7) four-hour boat trips off the coast of Los Angeles, California, USA. For each trip, sea conditions and participant self-evaluation of symptoms of motion sickness are recorded. Among the seven trips, three are under “rough” sea conditions, conducive to producing motion sickness with wave heights above one meter. The remaining four trips are made under “calm” conditions, with wave heights less than one meter, and are less likely to produce motion sickness. Under “rough” sea conditions, 72.2% of the placebo treated patients experience vomiting compared to only 26.7% under “calm” conditions. Subjects are randomized 1:1 to receive either tradipitant 170 mg or placebo by mouth in a blinded fashion, prior to travel initiation. Participants report their symptoms at predetermined time intervals of every 30 minutes during the travel period using the Motion Sickness Severity Scale (MSSS) and other assessments. Primary end points of the study include: percentage of participants vomiting, and Motion Sickness Severity Scale (MSSS) Worst score. The MSSS is a 7 point scale ranging from 0 (“no symptoms”) to 6 (“vomiting”). An exploratory analysis is also performed to evaluate the effects of tradipitant under “calm” and “rough” seas. In the study described above in Example 3, further analysis is conducted with respect to study participants' ethnic backgrounds, in particular, whether study participants are Hispanic or non-Hispanic, e.g., white (non-Hispanic), Black or African American (non-Hispanic), American Indian and Alaska Native (non-Hispanic), Asian (non-Hispanic), Native Hawaiian and other Pacific Islander (non-Hispanic), some other race (non-Hispanic), or multi-racial (non-Hispanic). Results are analyzed based on study participants' self-reported ethnic backgrounds.

O=C(c1ccccc1Cl)c1cccnc1-c1nnn(Cc2cc(C(F)(F)F)cc(C(F)(F)F)c2)c1-c1ccncc1 [Tradipitant, {2-[1-(3,5-bistrifluoromethylbenzyl)-5-pyridin-4-yl-1H-[1,2,3]triazol-4-yl]-pyridin-3-yl}-(2-chlorophenyl)-methanone]
inhibition of binding in panel of 74 other receptors, enzymes, and ion channels [1]: ≤ 50%
suppression of agonist-induced vocalization ([2]; 0.1 mg/kg oral, 7 hours after administration): significantly active
duration of activity ([2]; administered orally): exceeds 7 hours
inhibitory activity on vocalization ([2]; at and below 0.1 mg/kg oral): retains significant inhibitory activity
inhibition of agonist-induced vocalization ([2]; oral, 10, 1.0, 0.1 and 0.05 mg/kg (each p<0.001)): significant inhibition
minimum effective dose (MED), inhibition of vocalization ([2]; oral, p<0.001 compared to controls): 0.025 mg/kg
ED50, occupancy of brain NK-1 receptors [3]: 0.04 mg/kg
% Vomiting, Difference placebo vs tradipitant ([4]; Calm Sea, P-value 0.3123): 8.5%
Worst MSSS, Difference placebo vs tradipitant ([4]; Calm Sea, P-value 0.8271): −0.09
Worst MSSS ([4]; Calm Sea, n = 44, 170 mg by mouth, placebo 3.32): 3.4
Worst MSSS ([4]; Calm Sea, n = 44, 170 mg by mouth, placebo 3.32, listed as tradipitant): 3.40
% Vomiting ([4]; Calm Sea, n = 44, 170 mg by mouth, placebo 26.7%): 18.2%
% Vomiting ([4]; Calm Sea, n = 44, 170 mg by mouth, placebo 26.7%, listed as tradipitant): 18.2%
study participants experiencing vomiting ([4]; Hispanic participants, placebo 33.3%): 4.5%
% Vomiting, Difference placebo vs tradipitant ([4]; ITT, P-value 0.0039): 22.2%
Worst MSSS, Difference placebo vs tradipitant ([4]; ITT, P-value 0.2936): 0.35
Worst MSSS ([4]; ITT, n = 63, 170 mg by mouth, placebo 3.75): 3.40
Worst MSSS ([4]; ITT, n = 63, 170 mg by mouth, placebo 3.75, listed as tradipitant): 3.4
% Vomiting ([4]; ITT, n = 63, 170 mg by mouth, placebo 39.7%): 17.5%
% Vomiting ([4]; ITT, n = 63, 170 mg by mouth, placebo 39.7%, listed as tradipitant): 17.5%
% Vomiting, Difference placebo vs tradipitant ([4]; Rough Sea, P-value 0.0009): 56.4%
Worst MSSS, Difference placebo vs tradipitant ([4]; Rough Sea, P-value 0.0235): 1.38
Worst MSSS ([4]; Rough Sea, n = 19, 170 mg by mouth, placebo 4.57): 3.19
% Vomiting ([4]; Rough Sea, n = 19, 170 mg by mouth, placebo 72.2%): 15.8%
% Vomiting ([4]; Rough Sea, n = 19, 170 mg by mouth, placebo 72.2%, listed as tradipitant): 15.8%
study participants experiencing vomiting ([4]; non-Hispanic participants, placebo 42.8%): 24.4%
